Where two headings read alike, the source gives them in different places.
Tests used:
Type in all cases: in vivo
Myzus persicae = experiment: whole plant or invertebrate
Excerpt: (§1) If the actual kill rate is greater than that calculated, the kill rate of the combination is superadditive, which means that a synergistic effect is present. In this case, the kill rate actually observed must be greater than the value calculated from the above formula for the expected kill rate (E).
(§2) • 78 parts by weight of acetone • 1.5 parts by weight of dimethylformamide Emulsifier: 0.5 part by weight of alkylaryl polyglycol ether
(§3) To produce an appropriate active ingredient formulation, 1 part by weight of active ingredient is mixed with the stated amounts of solvent and emulsifier, and the concentrate is diluted with emulsifier-containing water to the desired concentration.
After the desired time, the kill in % is determined. 100% means that all aphids have been killed; 0% means that no aphids have been killed. The kill rates determined are entered into Colby's formula.

Phaedon cochleariae = experiment: whole plant or invertebrate; conditions: for pest or weed control at 0.8 g/ha / pest or weed control at 0.16 g/ha / pest or weed control at 4 g/ha: Phaedon cochleariae, 144 h, read-out: Kill rate in % after 6 d
Excerpt: (§4) The expected action for a given combination of two active ingredients can be calculated according to S. R. Colby, Weeds 15 (1967), 20-22 as follows:
(§5) • X is the kill rate, expressed in % of the untreated control, in the case of use of active ingredient A in an application rate of m g/ha or in a concentration of m ppm, • Y is the kill rate, expressed in % of the untreated control, in the case of use of active ingredient B in an application rate of n g/ha or in a concentration of n ppm, and • E is the kill rate, expressed in % of the untreated control, in the case of use of active ingredients A and B in application rates of m and n g/ha or in a concentration of m and n ppm, then
as §1, §2, §3
Cabbage leaves (Brassica oleracea) are treated by spraying with the active ingredient formulation of the desired concentration and populated with larvae of the mustard beetle (Phaedon cochleariae) while the leaves are still moist.
After the desired period of time, the kill rate in % is determined. 100% means that all beetle larvae have been killed; 0% means that none of the beetle larvae have been killed. The kill rates determined are entered into Colby's formula.

Tetranychus urticae = experiment: Tetranychus test (OP-resistant/spray treatment)
Excerpt: as §4, §5, §1, §2, §3
Discs of bean leaves (Phaseolus vulgaris) infested by all stages of the two-spotted spider mite (Tetranychus urticae) are sprayed with an active ingredient formulation of the desired concentration.
After the desired period of time, the effect in % is determined. 100% means that all of the spider mites have been killed; 0% means that none of the spider mites have been killed.

[1] = Myzus persicae, 144 h, 0.16 g/ha, after 6 d, read-out: Kill rate in % after 6 d
[2] = Myzus persicae, 144 h, read-out: Kill rate in % after 6 d
[3] = Myzus persicae, 144 h, 0.8 g/ha, after 6 d, read-out: Kill rate in % after 6 d
[4] = Myzus persicae, 24 h, read-out: Kill rate in % after 1 d
[5] = Myzus persicae, 24 h, 20 g/ha, after 1 d, read-out: Kill rate in % after 1 d
[6] = Myzus persicae, 24 h, 4 g/ha, after 1 d, read-out: Kill rate in % after 1 d
[7] = Tetranychus urticae, 48 h, 4 g/ha, after 2 d, applied individually, read-out: Kill rate in % after 2 d
[8] = Myzus persicae, 24 h, 100 g/ha, after 1 d, read-out: Kill rate in % after 1 d
[9] = Myzus persicae, 24 h, 0.8 g/ha, after 1 d, read-out: Kill rate in % after 1 d
[10] = Myzus persicae, 24 h, 0.16 g/ha, after 1 d, read-out: Kill rate in % after 1 d
[11] = Tetranychus urticae, 48 h, 20 g/ha, after 2 d, applied individually, read-out: Kill rate in % after 2 d
[12] = Tetranychus urticae, 144 h, 20 g/ha, after 6 d, applied individually, read-out: Kill rate in % after 6 d

C/C(=N\C#N)N(C)Cc1ccc(Cl)nc1 [acetamiprid]
pest or weed control at 0.16 g/ha (Myzus persicae; [1]): 0%

CCCSP(=O)(OCC)SCCC [ethoprophos]
pest or weed control at 4 g/ha (Myzus persicae; [2]): 0%
pest or weed control at 0.8 g/ha (Phaedon cochleariae; 0.8 g/ha, after 6 d): 0%

CNC(=O)O/N=C/C(C)(C)SC [aldicarb]
pest or weed control at 0.8 g/ha (Myzus persicae; [3]): 0%
Kill rate in % after 2 d (Phaedon cochleariae; 0.8 g/ha, after 2 d): 0%

Cc1cc(C)c(C2=C(OC(=O)CC(C)(C)C)C3(CCCC3)OC2=O)c(C)c1 [spiromesifen]
Kill rate in % after 1 d (Myzus persicae; 4 g/ha, after 1 d): 0%
Kill rate in % after 6 d (Tetranychus urticae; 4 g/ha, after 6 d, applied individually): 70%
Kill rate in % after 6 d (Tetranychus urticae; 20 g/ha, after 6 d, applied individually): 80%

CC(C)c1cc(Oc2ccccc2)cc(C(C)C)c1NC(=S)NC(C)(C)C [diafenthiuron]
pest or weed control at 100 g/ha (Myzus persicae; [4]): 0%
pest or weed control at 20 g/ha (Myzus persicae; [2]): 70%
pest or weed control at 100 g/ha (Tetranychus urticae; Tetranychus urticae, 48 h, read-out: Kill rate in % after 2 d): 0%
pest or weed control at 20 g/ha (Tetranychus urticae; Tetranychus urticae, 144 h, read-out: Kill rate in % after 6 d): 10%

CS/C(C)=N\OC(=O)N(C)SN(C)C(=O)O/N=C(\C)SC [thiodicarb]
pest or weed control at 20 g/ha (Myzus persicae; [5]): 0%
pest or weed control at 100 g/ha (Tetranychus urticae; Tetranychus urticae, 48 h, 100 g/ha, after 2 d, applied individually, read-out: Kill rate in % after 2 d): 0%

CC1(C)C(C=C(Cl)Cl)C1C(=O)OC(C#N)c1cccc(Oc2ccccc2)c1 (stereo not drawn) [cypermethrin]
pest or weed control at 4 g/ha (Myzus persicae; [6]): 80%
pest or weed control at 0.16 g/ha (Phaedon cochleariae; 0.16 g/ha, after 6 d): 0%

CCOC(=O)OC1=C(c2cc(C)ccc2C)C(=O)N[C@]12CC[C@@H](OC)CC2 [spirotetramat]
pest or weed control at 4 g/ha (Tetranychus urticae; [7]): 0%

CC1=NNC(=O)N(/N=C/c2cccnc2)C1 [pymetrozine]
pest or weed control at 100 g/ha (Myzus persicae; [8]): 0%

CNC(=O)c1cc(C#N)cc(C)c1NC(=O)c1cc(Br)nn1-c1ncccc1Cl [cyantraniliprole]
pest or weed control at 0.16 g/ha (Myzus persicae; [1]): 0%
Kill rate in % after 2 d (Phaedon cochleariae; 0.16 g/ha, after 2 d): 0%
pest or weed control at 0.16 g/ha (Phaedon cochleariae; 0.16 g/ha, after 6 d): 0%

O=C(NC(=O)c1ccccc1Cl)Nc1ccc(OC(F)(F)F)cc1 [triflumuron]
pest or weed control at 4 g/ha (Myzus persicae; Myzus persicae, 144 h, 4 g/ha, after 6 d, read-out: Kill rate in % after 6 d): 0%
pest or weed control at 20 g/ha (Myzus persicae; Myzus persicae, 144 h, 20 g/ha, after 6 d, read-out: Kill rate in % after 6 d): 0%
pest or weed control at 4 g/ha (Phaedon cochleariae; 4 g/ha, after 6 d): 0%

N#C/N=C1\SCCN1Cc1ccc(Cl)nc1 [thiacloprid]
pest or weed control at 20 g/ha (Myzus persicae; [5]): 80%
pest or weed control at 0.8 g/ha (Myzus persicae; [3]): 80%

N#Cc1ccc(CC(=NNC(=O)Nc2ccc(OC(F)(F)F)cc2)c2cccc(C(F)(F)F)c2)cc1 (mixture of isomers) [metaflumizone]
Kill rate in % after 1 d (Myzus persicae; 20 g/ha, after 1 d): 0%

Cc1c(COC(=O)[C@@H]2[C@H](/C=C(\Cl)C(F)(F)F)C2(C)C)cccc1-c1ccccc1 (racemic) [bifenthrin]
pest or weed control at 0.8 g/ha (Myzus persicae; [9]): 80%
pest or weed control at 0.16 g/ha (Tetranychus urticae; Tetranychus urticae, 48 h, 0.16 g/ha, after 2 d, applied individually, read-out: Kill rate in % after 2 d): 0%

Fc1cncc(-c2ncc(-c3cccc(-c4ncccn4)n3)s2)c1 [2-{6-[2-(5-fluoropyridin-3-yl)-1,3-thiazol-5-yl]pyridin-2-yl}pyrimidine]
pest or weed control at 0.8 g/ha (Myzus persicae; [3]): 70%
pest or weed control at 0.16 g/ha (Phaedon cochleariae; 0.16 g/ha, after 6 d): 0%

CCOCn1c(-c2ccc(Cl)cc2)c(C#N)c(Br)c1C(F)(F)F [chlorfenapyr]
pest or weed control at 0.16 g/ha (Myzus persicae; [1]): 0%
pest or weed control at 0.8 g/ha (Myzus persicae; [3]): 0%
pest or weed control at 4 g/ha (Tetranychus urticae; [7]): 10%

CC1(C)C(C=C(Cl)Cl)C1C(=O)OC(C#N)c1cccc(Oc2ccccc2)c1 (stereo not drawn) [alpha-cypermethrin]
pest or weed control at 0.16 g/ha (Myzus persicae; [10]): 70%
pest or weed control at 4 g/ha (Tetranychus urticae; [7]): 0%

CNC(=O)Oc1cccc2c1OC(C)(C)C2 [carbofuran]
pest or weed control at 20 g/ha (Myzus persicae; [5]): 70%

CC[S+]([O-])c1c(C#N)nn(-c2c(Cl)cc(C(F)(F)F)cc2Cl)c1N (stereo not drawn) [ethiprole]
pest or weed control at 4 g/ha (Myzus persicae; [6]): 0%

COP(N)(=O)SC (stereo not drawn) [methamidophos]
pest or weed control at 20 g/ha (Myzus persicae; [5]): 0%
pest or weed control at 100 g/ha (Myzus persicae; [8]): 80%

CC1(C)[C@H](C=C(Cl)Cl)[C@H]1C(=O)OCc1c(F)c(F)cc(F)c1F [transfluthrin]
pest or weed control at 20 g/ha (Myzus persicae; [5]): 70%

milbemectin
Kill rate in % after 6 d (Myzus persicae; 0.032 g/ha, after 6 d): 0%
Kill rate in % after 1 d (Myzus persicae; 0.8 g/ha, after 1 d): 0%
Kill rate in % after 2 d (Tetranychus urticae; 0.032 g/ha, after 2 d, applied individually): 50%

Cc1cc(C(F)(C(F)(F)F)C(F)(F)F)ccc1NC(=O)c1cccc(I)c1C(=O)NC(C)(C)CS(C)(=O)=O [flubendiamide]
pest or weed control at 0.8 g/ha (Phaedon cochleariae; 0.8 g/ha, after 6 d): 0%
pest or weed control at 20 g/ha (Tetranychus urticae; [11]): 0%

O=[N+]([O-])NC1=NCCN1Cc1ccc(Cl)nc1 [imidacloprid]
pest or weed control at 0.8 g/ha (Myzus persicae; [9]): 0%

N#CCNC(=O)c1cnccc1C(F)(F)F [flonicamid]
Kill rate in % after 1 d (Myzus persicae; 20 g/ha, after 1 d): 0%

CC1(C)[C@H](C(=O)O[C@H](C#N)c2cccc(Oc3ccccc3)c2)[C@@H]1/C=C\C(=O)OC(C(F)(F)F)C(F)(F)F [acrinathrin]
pest or weed control at 0.8 g/ha (Myzus persicae; [9]): 0%
pest or weed control at 0.8 g/ha (Tetranychus urticae; Tetranychus urticae, 48 h, after 2 d, applied individually, read-out: Kill rate in % after 2 d): 0%
pest or weed control at 4 g/ha (Tetranychus urticae; [7]): 20%
pest or weed control at 0.8 g/ha (Tetranychus urticae; Tetranychus urticae, 144 h, after 6 d, applied individually, read-out: Kill rate in % after 6 d): 40%

CN/C(=N\[N+](=O)[O-])NCc1cnc(Cl)s1 [clothianidin]
pest or weed control at 20 g/ha (Myzus persicae; [5]): 70%
pest or weed control at 0.16 g/ha (Myzus persicae; [1]): 0%

CC1(C)[C@H](C(=O)O[C@H](C#N)c2cccc(Oc3ccccc3)c2)[C@@H]1C=C(Br)Br [deltamethrin]
pest or weed control at 0.8 g/ha (Myzus persicae; [9]): 0%

CCOP(=O)(SC(C)CC)SC(C)CC (stereo not drawn) [cadusaphos]
pest or weed control at 20 g/ha (Myzus persicae; [5]): 0%
pest or weed control at 20 g/ha (Tetranychus urticae; [12]): 0%

O=C1C=C(N(Cc2ccc(Cl)nc2)CC(F)F)CO1 [4-{[(6-chloropyrid-3-yl)methyl](2,2-difluoroethyl)amino}furan-2(5H)-one]
pest or weed control at 20 g/ha (Myzus persicae; [5]): 0%
pest or weed control at 20 g/ha (Tetranychus urticae; [11]): 0%

COP(=O)(NC(C)=O)SC (stereo not drawn) [acephate]
pest or weed control at 100 g/ha (Myzus persicae; [4]): 0%
pest or weed control at 4 g/ha (Phaedon cochleariae): 0%

N#Cc1nn(-c2c(Cl)cc(C(F)(F)F)cc2Cl)c(N)c1[S+]([O-])C(F)(F)F (stereo not drawn) [fipronil]
pest or weed control at 0.16 g/ha (Myzus persicae; [1]): 0%
Kill rate in % after 2 d (Phaedon cochleariae; 0.16 g/ha, after 2 d): 67%

CNC(=O)Oc1cc(C)c(SC)c(C)c1 [methiocarb]
pest or weed control at 20 g/ha (Myzus persicae; [5]): 0%

CCOP(=S)(OCC)Oc1nc(Cl)c(Cl)cc1Cl [chlorpyrifos]
pest or weed control at 4 g/ha (Myzus persicae; [6]): 80%
pest or weed control at 100 g/ha (Tetranychus urticae; Tetranychus urticae, 144 h, 100 g/ha, after 6 d, applied individually, read-out: Kill rate in % after 6 d): 0%

CC(C)N1C(=O)N(c2ccccc2)CS/C1=N\C(C)(C)C [buprofezin]
pest or weed control at 500 g/ha (Myzus persicae; Myzus persicae, 24 h, 500 g/ha, after 1 d, read-out: Kill rate in % after 1 d): 0%

Cc1cc(Cl)cc(C)c1C1=C(O)C2(CCC3(CC2)OCCO3)NC1=O [11-(4-chloro-2,6-dimethylphenyl)-12-hydroxy-1,4-dioxa-9-azadispiro[4.2.4.2]tetradec-11-en-10-one]
pest or weed control at 0.8 g/ha (Myzus persicae; [3]): 0%

CC1(C)C(C=C(Cl)Cl)C1C(=O)OC(C#N)c1ccc(F)c(Oc2ccccc2)c1 (stereo not drawn) [β-cyfluthrin]
Kill rate in % after 1 d (Myzus persicae; 0.032 g/ha, after 1 d): 0%
Kill rate in % after 1 d (Myzus persicae; 0.16 g/ha, after 1 d): 70%
Kill rate in % after 2 d (Phaedon cochleariae; 0.032 g/ha, after 2 d): 0%

Cc1c(F)c(F)c(COC(=O)[C@@H]2[C@H](/C=C(\Cl)C(F)(F)F)C2(C)C)c(F)c1F (racemic) [tefluthrin]
pest or weed control at 20 g/ha (Tetranychus urticae; [12]): 0%

CN1COCN(Cc2cnc(Cl)s2)/C1=N\[N+](=O)[O-] [thiamethoxam]
pest or weed control at 20 g/ha (Myzus persicae; [5]): 70%

CN/C(=N/CC1CCOC1)N[N+](=O)[O-] (stereo not drawn) [dinotefuran]
Kill rate in % after 2 d (Phaedon cochleariae; in vivo): 0%

CC(c1ccc(C(F)(F)F)nc1)S(C)(=O)=NC#N (stereo not drawn) [sulfoxaflor]
pest or weed control at 0.16 g/ha (Myzus persicae; [10]): 0%

— US20160037775A1, “ACTIVE INGREDIENT COMBINATIONS HAVING INSECTICIDAL AND ACARICIDAL PROPERTIES” (priority 2010, published 2016)
